Measured values taken from patent US20020193320A1, “C-2 modified erythromycin derivatives” (priority 1999, published 2002).

Columns and labels:
Assay in all cases: In vitro antibacterial activity, agar dilution MIC
Assay type in all cases: cell-based
[1] = system: Streptococcus Pneumonia ATCC 6303; conditions: code XX, 35-37° C., 20 to 24 hours
Procedure: (§1) Representative compounds of the present invention were assayed in vitro for antibacterial activity as follows: Twelve petri dishes containing successive aqueous dilutions of the test compound mixed with 10 mL of sterilized Brain Heart Infusion (BHI) agar (Difco 0418-01-5) were prepared. Each plate was inoculated with 1:100 (or 1:10 for slow-growing strains, such as Micrococcus and Streptococcus) dilutions of up to 32 different microorganisms, using a Steers replicator block. The inoculated plates were incubated at 35-37° C. for 20 to 24 hours. In addition, a control plate, using BHI agar containing no test compound, was prepared and incubated at the beginning and end of each test.
(§2) An additional plate containing a compound having known susceptibility patterns for the organisms being tested and belonging to the same antibiotic class as the test compound was also prepared and incubated as a further control, as well as to provide test-to-test comparability.
(§3) After incubation, each plate was visually inspected. The minimum inhibitory concentration (MIC) was defined as the lowest concentration of drug yielding no growth, a slight haze, or sparsely isolated colonies on the inoculum spot as compared to the growth control.

[2] = system: Streptococcus Pneumonia 5979; conditions: code ZZ, 35-37° C., 20 to 24 hours
Procedure: as §1, §2, §3

[3] = system: Streptococcus pyogenes EES61; conditions: code LL, BHI agar, 35-37° C., 20 to 24 hours
Procedure: as §1, §2, §3

[4] = system: Streptococcus Pneumonia GYR 1171; conditions: code YY, 35-37° C., 20 to 24 hours
Procedure: as §1, §2, §3

[5] = system: Micrococcus luteus ATCC 4698; conditions: code PP, BHI agar, 35-37° C., 20 to 24 hours
Procedure: as §1, §2, §3

[6] = system: Streptococcus Pneumonia 5649; conditions: code ZZA (code list: ZA), 35-37° C., 20 to 24 hours
Procedure: as §1, §2, §3

[7] = system: Haemophilis Influenzae DILL AMP R; conditions: code WW, 35-37° C., 20 to 24 hours
Procedure: as §1, §2, §3

[8] = system: Streptococcus pyogenes 930; design: unit not given here; conditions: code MM, BHI agar, 35-37° C., 20 to 24 hours
Procedure: as §1, §2, §3

[9] = system: Staphylococcus aureus 1775; design: unit not given here; conditions: code GG, BHI agar, 35-37° C., 20 to 24 hours
Procedure: as §1, §2, §3

Escherichia coli SS = system: Escherichia coli SS; design: unit not given here; conditions: code RR, BHI agar, 35-37° C., 20 to 24 hours
Procedure: as §1, §2, §3

Escherichia coli DC-2 = system: Escherichia coli DC-2; design: unit not given here; conditions: code SS, BHI agar, 35-37° C., 20 to 24 hours
Procedure: as §1, §2, §3

[10] = system: Staphylococcus aureus CMX 642A; design: unit not given here; conditions: code DD, BHI agar, 35-37° C., 20 to 24 hours
Procedure: as §1, §2, §3

[11] = system: Staphylococcus aureus A-5177; design: unit not given here; conditions: code BB, BHI agar, 35-37° C., 20 to 24 hours
Procedure: as §1, §2, §3

[12] = system: Streptococcus agalactiae CMX 508; design: unit not given here; conditions: code KK, BHI agar, 35-37° C., 20 to 24 hours
Procedure: as §1, §2, §3

[13] = system: Staphylococcus aureus ATCC 6538P; design: unit not given here; conditions: code AA, BHI agar, 35-37° C., 20 to 24 hours
Procedure: as §1, §2, §3

[14] = system: Staphylococcus aureus A-5278; design: unit not given here; conditions: code CC, BHI agar, 35-37° C., 20 to 24 hours
Procedure: as §1, §2, §3

[15] = system: Streptococcus bovis A-5169; design: unit not given here; conditions: code JJ, BHI agar, 35-37° C., 20 to 24 hours
Procedure: as §1, §2, §3

[16] = system: Micrococcus luteus ATCC 9341; design: unit not given here; conditions: code OO, BHI agar, 35-37° C., 20 to 24 hours
Procedure: as §1, §2, §3

[17] = system: Staphylococcus aureus CMX 553; design: unit not given here; conditions: code FF, BHI agar, 35-37° C., 20 to 24 hours
Procedure: as §1, §2, §3

[18] = system: Staphylococcus aureus NCTC 10649M; design: unit not given here; conditions: code EE, BHI agar, 35-37° C., 20 to 24 hours
Procedure: as §1, §2, §3

[19] = system: Enterococcus faecium ATCC X043; design: unit not given here; conditions: code II, BHI agar, 35-37° C., 20 to 24 hours
Procedure: as §1, §2, §3

[20] = system: Streptococcus pyogenes PIU 2548; design: unit not given here; conditions: code NN, BHI agar, 35-37° C., 20 to 24 hours
Procedure: as §1, §2, §3

Escherichia coli JUHL = system: Escherichia coli JUHL; design: unit not given here; conditions: code QQ, BHI agar, 35-37° C., 20 to 24 hours
Procedure: as §1, §2, §3

[21] = system: Mycobacterium smegmatis ATCC 114; design: unit not given here; conditions: code UU, BHI agar, 35-37° C., 20 to 24 hours
Procedure: as §1, §2, §3

Candida albicans CCH 442 = system: Candida albicans CCH 442; design: unit not given here; conditions: code TT, BHI agar, 35-37° C., 20 to 24 hours
Procedure: as §1, §2, §3

[22] = system: Nocardia Asteroides ATCC 99700; design: unit not given here; conditions: code VV, BHI agar, 35-37° C., 20 to 24 hours
Procedure: as §1, §2, §3

[23] = system: Staphylococcus epidermidis 3519; design: unit not given here; conditions: code HH, BHI agar, 35-37° C., 20 to 24 hours
Procedure: as §1, §2, §3

## CCC1OC(=O)C(C)(O)C(=O)C(C)C(OC2OC(C)CC(N(C)C)C2O)C(C)(OCC(O)CO)CC(C)C(=O)C(C)C2NC(=O)OC12C (stereo not drawn) [Example 3, Compound of formula (II): R^a is —CH2CH(OH)CH2OH, R^b is H, Y and Z together are O, T is —NH—, R is —OH]
[1]
  Antibacterial Activity (MIC): 64
[2]
  Antibacterial Activity (MIC): >128
[3]
  Antibacterial Activity (MIC): 100
[4]
  Antibacterial Activity (MIC): 32
[5]
  Antibacterial Activity (MIC): >100
[6]
  Antibacterial Activity (MIC): >128
[7]
  Antibacterial Activity (MIC): >128
[8]
  Antibacterial Activity (MIC): >100
[9]
  Antibacterial Activity (MIC): >100
Escherichia coli SS
  Antibacterial Activity (MIC): 100
Escherichia coli DC-2
  Antibacterial Activity (MIC): >100
[10]
  Antibacterial Activity (MIC): >100
[11]
  Antibacterial Activity (MIC): >100
[12]
  Antibacterial Activity (MIC): 50
[13]
  Antibacterial Activity (MIC): >100
[14]
  Antibacterial Activity (MIC): >100
[15]
  Antibacterial Activity (MIC): 50
[16]
  Antibacterial Activity (MIC): 50
[17]
  Antibacterial Activity (MIC): >100
[18]
  Antibacterial Activity (MIC): >100
[19]
  Antibacterial Activity (MIC): 100
[20]
  Antibacterial Activity (MIC): >100
Escherichia coli JUHL
  Antibacterial Activity (MIC): >100
[21]
  Antibacterial Activity (MIC): >100
Candida albicans CCH 442
  Antibacterial Activity (MIC): >100
[22]
  Antibacterial Activity (MIC): >100
[23]
  Antibacterial Activity (MIC): >100

## C#CCOC1(C)CC(C)C(=O)C(C)C2NC(=O)OC2(C)C(CC)OC(=O)C(C)(CC=Cc2ccccc2)C(=O)C(C)C1OC1OC(C)CC(N(C)C)C1O (stereo not drawn) [Example 9, Compound of formula (II): R^a is —CH2C≡CH, R^b is H, Y and Z together are O, T is —NH—, R is —CH2CH≡CH—(phenyl)]
[1]
  Antibacterial Activity (MIC): 1
[2]
  Antibacterial Activity (MIC): 64
[3]
  Antibacterial Activity (MIC): 1.56
[4]
  Antibacterial Activity (MIC): 1
[5]
  Antibacterial Activity (MIC): 3.1
[6]
  Antibacterial Activity (MIC): 8
[7]
  Antibacterial Activity (MIC): >64
[8]
  Antibacterial Activity (MIC): 50
[9]
  Antibacterial Activity (MIC): 100
Escherichia coli SS
  Antibacterial Activity (MIC): 6.2
Escherichia coli DC-2
  Antibacterial Activity (MIC): >100
[10]
  Antibacterial Activity (MIC): 3.1
[11]
  Antibacterial Activity (MIC): 3.1
[12]
  Antibacterial Activity (MIC): 1.56
[13]
  Antibacterial Activity (MIC): 3.1
[14]
  Antibacterial Activity (MIC): >100
[15]
  Antibacterial Activity (MIC): 0.78
[16]
  Antibacterial Activity (MIC): 1.56
[17]
  Antibacterial Activity (MIC): 3.1
[18]
  Antibacterial Activity (MIC): 12.5
[19]
  Antibacterial Activity (MIC): 3.1
[20]
  Antibacterial Activity (MIC): 3.1
Escherichia coli JUHL
  Antibacterial Activity (MIC): >100
[21]
  Antibacterial Activity (MIC): 12.5
Candida albicans CCH 442
  Antibacterial Activity (MIC): >100
[22]
  Antibacterial Activity (MIC): 1.56
[23]
  Antibacterial Activity (MIC): 6.2

## CCC1OC(=O)C(C)(O)C(=O)C(C)C(OC2OC(C)CC(N(C)C)C2O)C(C)(OCC=Cc2cnc3ccccc3c2)CC(C)C(=O)C(C)C2NC(=O)OC12C (stereo not drawn) [Example 8, Compound of formula (II): R^a is —CH2CH═CH—(3-quinolinyl), R^b is H, Y and Z together are O, T is —NH—, R is —OH,]
[1]
  Antibacterial Activity (MIC): 0.03
[2]
  Antibacterial Activity (MIC): 128
[3]
  Antibacterial Activity (MIC): 0.02
[4]
  Antibacterial Activity (MIC): 0.03
[5]
  Antibacterial Activity (MIC): 0.2
[6]
  Antibacterial Activity (MIC): 0.5
[7]
  Antibacterial Activity (MIC): 16
[8]
  Antibacterial Activity (MIC): 50
[9]
  Antibacterial Activity (MIC): >100
Escherichia coli SS
  Antibacterial Activity (MIC): 0.2
Escherichia coli DC-2
  Antibacterial Activity (MIC): >100
[10]
  Antibacterial Activity (MIC): 0.39
[11]
  Antibacterial Activity (MIC): 0.39
[12]
  Antibacterial Activity (MIC): 0.01
[13]
  Antibacterial Activity (MIC): 0.39
[14]
  Antibacterial Activity (MIC): >100
[15]
  Antibacterial Activity (MIC): 0.02
[16]
  Antibacterial Activity (MIC): 0.02
[17]
  Antibacterial Activity (MIC): 0.78
[18]
  Antibacterial Activity (MIC): 0.78
[19]
  Antibacterial Activity (MIC): 0.2
[20]
  Antibacterial Activity (MIC): 0.39
Escherichia coli JUHL
  Antibacterial Activity (MIC): >100
[21]
  Antibacterial Activity (MIC): 3.1
Candida albicans CCH 442
  Antibacterial Activity (MIC): >100
[22]
  Antibacterial Activity (MIC): 0.39
[23]
  Antibacterial Activity (MIC): 0.39

## CCC1OC(=O)C(C)(CC=Cc2ccccc2)C(=O)C(C)C(OC2OC(C)CC(N(C)C)C2O)C(C)(OC)CC(C)C(=O)C(C)C2NC(=O)OC12C (stereo not drawn) [Example 1, Compound of formula (II): R^a is CH3, R^b is H, Y and Z together are O, T is —NH—, R is —CH2CH═CH-(phenyl)]
[1]
  Antibacterial Activity (MIC): 8
[2]
  Antibacterial Activity (MIC): 64
[3]
  Antibacterial Activity (MIC): 12.5
[4]
  Antibacterial Activity (MIC): 4
[5]
  Antibacterial Activity (MIC): 6.2
[6]
  Antibacterial Activity (MIC): 16
[7]
  Antibacterial Activity (MIC): >128
[8]
  Antibacterial Activity (MIC): 50
[9]
  Antibacterial Activity (MIC): 100
Escherichia coli SS
  Antibacterial Activity (MIC): 50
Escherichia coli DC-2
  Antibacterial Activity (MIC): >100
[10]
  Antibacterial Activity (MIC): 25
[11]
  Antibacterial Activity (MIC): 25
[12]
  Antibacterial Activity (MIC): 12.5
[13]
  Antibacterial Activity (MIC): 25
[14]
  Antibacterial Activity (MIC): 100
[15]
  Antibacterial Activity (MIC): 12.5
[16]
  Antibacterial Activity (MIC): 3.1
[17]
  Antibacterial Activity (MIC): 50
[18]
  Antibacterial Activity (MIC): 50
[19]
  Antibacterial Activity (MIC): 25
[20]
  Antibacterial Activity (MIC): 12.5
Escherichia coli JUHL
  Antibacterial Activity (MIC): >100
[21]
  Antibacterial Activity (MIC): 25
Candida albicans CCH 442
  Antibacterial Activity (MIC): 100
[22]
  Antibacterial Activity (MIC): 25
[23]
  Antibacterial Activity (MIC): 50
